Patent US20200155487A1, “Treatment of obesity and its complications” (CymaBay Therapeutics, Inc., priority 2018, published 2020)

Tests used:
[1] = system: dyslipidemic overweight patients; details: cited from earlier work; for reduction of alkaline phosphatase: control group 4%
[2] = system: patients with type 2 diabetes; details: in SNAC carrier, 20 and 40 mg/day; cited from earlier work
[3] = system: obese subjects; assay: Example 2 clinical study, single agent seladelpar in obese subjects, 52 weeks; assay type: in vivo, human; details: 10, 20, and 50 mg/day for 52 weeks
From the text: Subjects are permitted their usual other medications (e.g. antidiabetic medications such as metformin or […]) but not glitazones, PPAR agonists, OCA, or similar medications. […] The primary efficacy outcome is the change in body weight. Other outcome measures related to the complications of obesity include change in baseline in liver fat content at 12 weeks, as measured by magnetic resonance imaging-derived proton density fat fraction (MRI-PDFF), histological improvement in NASH and fibrosis, assessed by comparing liver biopsy samples at baseline and at 52 weeks after the start of dosing; MRI-PDFF at 26 and 52 weeks; and measurements of total cholesterol, HDL-C, LDL-C, VLDL-C, TGs, apoB, and liver transaminases. The subjects also maintain health diaries, which are reviewed at each visit.

[4] = system: DIO-NASH C57BL/6J mouse; assay: Diet-induced obese mouse model of NASH (DIO-NASH), 12 weeks dosing; assay type: in vivo; details: SD in parentheses
From the text: The diet-induced obese mouse model of NASH (DIO-NASH) uses the C57BL/6J mouse fed a high fat diet that results in NAFLD/NASH. A protocol is described in Kristiansen et al., “Obese diet-induced mouse models of nonalcoholic steatohepatitis—tracking disease by liver biopsy”, World J. Hepatol., 8(16), 673-684 (2016). Male C57BL/6J mice were fed an atherogenic 40% high fat diet (AMLN diet, D09100301, Research Diet, US—40 kcal % fat (18% trans fat), 40 kcal % carbohydrate (20% fructose), 2% cholesterol) for 43 weeks before the start of the trial, to induce NAFLD/NASH. At week −3, the mice underwent a liver biopsy, which was scored for steatosis and fibrosis; mice with fibrosis stage <1 and steatosis score <2 were deselected prior to randomization. A stratified randomization into treatment groups was performed according to liver Collal quantification. […] At 12 weeks, analyses included body weight, plasma ALT, AST, triglycerides, and total cholesterol; liver triglycerides and total cholesterol; and NAS, fibrosis, Collal, galectin-3, and steatosis and fibrosis scores from a liver biopsy. Results are given in the table below: standard deviations are in parentheses: […]

[5] = system: Alms1 mutant (foz/foz) mice; details: mouse, in vivo; cited from earlier work
[6] = system: NAFLD/NASH; details: in vivo; cited from earlier work
[7] = system: women and men; details: human, in vivo; cited from earlier work
[8] = compared to placebo, alone and with atorvastatin, 8 weeks

CC(C)c1c(C(=O)Nc2ccccc2)c(-c2ccccc2)c(-c2ccc(F)cc2)n1CC[C@@H](O)C[C@@H](O)CC(=O)O [ATV, reference compound]
increase of γ-glutamyl transpeptidase ([1]; 8 weeks, atorvastatin 20 mg): 2%
reduction of alkaline phosphatase ([1]; 8 weeks): 6%

semaglutide
efficacy of once/day oral dosing [2]: efficacious

CCO[C@H](COc1ccc(C(F)(F)F)cc1)CSc1ccc(OCC(=O)O)c(C)c1 [Seladelpar, (R)-2-(4-((2-ethoxy-3-(4-(trifluoromethyl)phenoxy)propyl)-sulfanyl)-2-methylphenoxy)acetic acid]
reduction of γ-glutamyl transpeptidase ([1]; 8 weeks, control group 3%): 24-28%
reduction of alkaline phosphatase ([1]; 8 weeks): 32-43%
reduction of apoB100 ([1]; compared to placebo, 50 or 100 mg alone or with atorvastatin 20 mg, 8 weeks, P<0.05): 20-38%
raise of HDL-C [1, 8]: 1-12%
reduction of LDL [1, 8]: 18-43%
reduction of free fatty acids [1, 8]: 16-28%
reduction of high-sensitivity C-reactive protein [1, 8]: 43-72%
reduction of non-HDL-C [1, 8]: 18-41%
reduction of triglycerides [1, 8]: 26-30%
depletion of small dense LDL particles ([1]; in vivo): 92%
reduction of the percentage of subjects meeting the criteria for metabolic syndrome ([1]; in vivo): > 2 fold
safety and tolerability ([1]; in vivo): safe and generally well-tolerated
improvement in obesity and complications (body weight, MRI-PDFF, liver biopsy, NAS score) [3]: dose-related improvement
NAS post-treatment ([4]; after 12 weeks dosing): 3.9 (0.5)
Liver TC ([4]; at 12 weeks): 10 (3) mg/g liver
Liver TG ([4]; at 12 weeks): 75 (20) mg/g liver
Plasma TC ([4]; at 12 weeks): 257 (40) mg/dL
Plasma TG ([4]; at 12 weeks): 38 (20) mg/dL
NAS pre-treatment ([4]; baseline biopsy before dosing): 6.0 (0.8)
Sirius red stain ([4]; liver biopsy at 12 weeks): 2.4 (1.8) %
ALT ([4]; plasma, at 12 weeks): 107 (65) U/L
AST ([4]; plasma, at 12 weeks): 162 (59) U/L
NASH pathology (hepatic steatosis, inflammation, fibrosis) [5]: improves NASH pathology

CCCCCCCCCCC[C@@H](C[C@@H]1OC(=O)[C@H]1CCCCCC)OC(=O)[C@H](CC(C)C)NC=O [orlistat]
benefit in NAFLD/NASH compared to weight loss alone [6]: no significant benefit

CCc1ccc(CCOc2ccc(CC3SC(=O)NC3=O)cc2)nc1 (stereo not shown) [pioglitazone]
associated risks [7]: significantly increased risk of weight gain, edema, congestive heart failure, and osteoporotic fractures
